pKi: −log10 of the molar value.

This assay deals with T1, Human neutrophil elastase (Homo sapiens, UniProt P08246).
T1 construct: Enzyme was isolated from human sputum; from tissue; host or cells: human sputum
T1 sequence (P08246 30-267): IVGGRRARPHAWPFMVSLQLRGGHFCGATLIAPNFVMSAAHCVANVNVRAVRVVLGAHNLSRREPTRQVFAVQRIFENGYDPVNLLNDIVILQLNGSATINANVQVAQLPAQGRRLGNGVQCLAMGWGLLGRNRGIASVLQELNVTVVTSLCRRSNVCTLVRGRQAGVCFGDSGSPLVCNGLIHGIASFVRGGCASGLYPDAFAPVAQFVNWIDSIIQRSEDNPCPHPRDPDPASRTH
The assay is described as follows: In vitro assay of human neutrophil elastase in the presence of prodrug and porcine liver esterase. The following applies: for time course / onset of inhibition of elastase compared with MDL 103,279: 66 nM compound + porcine liver esterase, FIG. 2. Format: biochemical. How it is done:
Human neutrophil elastase was assayed in vitro using N-MeOSuc-Ala-Ala-Pro-Val-p-nitroanilide, available commercially, as substrate. The assay techniques are similar to those described by Mehdi, et al., Biochemical and Biophysical Research Communications, 166, 595 (1990). The assay mixture consisted of partially purified elastase and substrate (0.2 mM) in 0.1M HEPES (pH 7.5), 0.5M NaCl, 10% DMSO and 0.1% Brij 35. The reaction (3.0 mL, in a plastic cuvette) was maintained at 37° C. and the hydrolysis of the substrate was followed in the presence of 66 nM of MDL 103,279 and 12.5 units of porcine liver esterase (Sigma Chemical Co., cat. no. E-3128). Enzyme was isolated from human sputum, although recently it has become commercially available. The time course of the reaction was followed for 60 min. […] From the final rate, a Ki of 25 nM was calculated for the final inhibitory species, presumed to be MDL 101,146 (as disclosed in European Pat. Appl. OPI No. 0529568, published Mar. 3, 1993). This is consistent with the Ki obtained independently for MDL 101,146. The Ki for MDL 103,279, the prodrug, was estimated from the initial rate to be greater than 2 μM. To rule out interference of the esterase with the elastase assay, or a significant spontaneous (i.e. non-enzymatic) hydrolysis rate of MDL 103,279, the following control experiments, as portrayed in FIG. 1, were performed: (A) elastase+elastase substrate; (B) elastase+elastase substrate+porcine liver esterase; (C) elastase+elastase substrate+MDL 103,279; as well as (D) elastase+elastase substrate+esterase+MDL 103,279.

By pKi is commonly meant −log10 of the Ki, conventionally taken in molar units. In the case of `CC(=O)OC(=C(NC(=O)[C@@H]1CCCN1C(=O)[C@@H](NC(=O)c1ccc(C(=O)N2CCOCC2)cc1)C(C)C)C(C)C)C(F)(F)C(F)(F)F` [MDL 103,279, (E)-N-[4-(4-Morpholinylcarbonyl)benzoyl]-L-valyl-N-[2-(acetyloxy)-3,3,4,4,4-pentafluoro-1-(1-methylethyl)-1-butenyl]-L-prolinamide], the “half-time of the progressive increase in extent of inhibition of elastase” value (66 nM compound, 12.5 units porcine liver esterase, 37° C., followed for 60 min) was “approximately 10 min”. Further, the pKi (66 nM compound, 12.5 units porcine liver esterase, pH 7.5, 37° C., read-out: Ki of the prodrug estimated from the initial rate) was below 5.70.

Take `CCC(=O)OC(=C(NC(=O)[C@@H]1CCCN1C(=O)[C@@H](NC(=O)c1ccc(C(=O)N2CCOCC2)cc1)C(C)C)C(C)C)C(F)(F)C(F)(F)F` [MDL 104,226, (E)-N-[4-(4-Morpholinylcarbonyl)benzoyl]-L-valyl-N-[3,3,4,4,4-pentafluoro-1-(1-methylethyl)-2-(1-oxopropoxy)-1-butenyl]-L-prolinamide]: the “time course / onset of inhibition of elastase compared with MDL 103,279” value is on record as “same time course”. For the molecule `CC(C)C(=O)OC(=C(NC(=O)[C@@H]1CCCN1C(=O)[C@@H](NC(=O)c1ccc(C(=O)N2CCOCC2)cc1)C(C)C)C(C)C)C(F)(F)C(F)(F)F` [MDL 105,658, (E)-N-[4-(4-Morpholinylcarbonyl)benzoyl]-L-valyl-N-[3,3,4,4,4-pentafluoro-1-(1-methylethyl)-2-(2-methyl-1-oxopropoxy)-1-butenyl]-L-prolinamide], the “time course / onset of inhibition of elastase compared with MDL 103,279” value is “same time course”. Regarding `CC(=O)OC(=C(NC(=O)[C@@H]1CCCN1C(=O)[C@@H](NC(=O)c1ccc(C(=O)N2CCOCC2)cc1)C(C)C)C(C)C)C(F)(F)C(F)(F)F` [MDL 105,457, (Z)-N-[4-(4-Morpholinylcarbonyl)benzoyl]-L-valyl-N-[2-(acetyloxy)-3,3,4,4,4-pentafluoro-1-(1-methylethyl)-1-butenyl]-L-prolinamide], the “time course / onset of inhibition of elastase compared with MDL 103,279” value is listed as “significantly slower”.

The values above are taken from patent US5698523A, “Acylated enol derivatives as prodrugs of elastase inhibitors” (Merrell Pharmaceuticals Inc., priority 1996, dated 1997).
